Measured values from patent US8802702B2, “Compounds for reducing drug resistance and uses thereof” (The General Hospital Corporation, priority 2009, dated 2014).
Read-outs that look alike come from different tables or passages of the source.

Columns and labels:
[1] = tested on: MCF-7 MX cells (express BCRP, not Pgp1); test: Reversal of drug resistance in non-Pgp1 MDR cells expressing BCRP; assay type: cell-based, human
Source text: Dr. Efstathios Gonos (Institute of Biological Research & Biotechnology, Athens, Greece) provided the doxorubicin resistant U-2OS R2 (referred in the text below as U-2OSDR), KHOS R2 cell lines. Dr. Stephen. Howell (The University of California Medical Center, San Diego) provided the cisplatin-resistant ovarian cancer IGROV1cp and 2008 cp70 cell lines. Dr. Erasmus Schneider (Wadsworth Center, Albany) provided the mitoxantrane resistant breast cancer MCF-7/MX cell line. Dr. Katia Scotlandi (Institute Orthopedics Rizzoli, Italy) provided ET-743 resistant TC-ET 6 nM and TC-ET 12 nM cell lines.

SKOV-3TR cells = test: Reversal of drug resistance, cytotoxicity (MTT) assay in SKOV-3TR; assay type: cell-based; conditions: for IC50: Homo sapiens, SKOV3TR
Protocol: FIGS. 1 (a-b) are graphs that depict the effects of NSC23925 on drug sensitivity in ovarian cancer cells; 1(a) depicts the effects of NSC23925 on sensitive (SKOV-3) and resistant (SKOV-3TR) cells; 1(b) depicts the effects of NSC23925 on sensitive (OVCAR8) and resistant (OVCAR8TR) cells. […] The relative sensitivity of each line to paclitaxel was determined by MTT assay, as described below in the Examples section, 6 days post treatment. […]
Drug cytotoxicity was assessed in vitro using the MTT assay. SKOV-3 and SKOV-3TR cells were used herein. Briefly, 2×10^3 cells per well were plated in 96-well plates in culture medium (RPMI 1640 supplemented with 10% fetal bovine serum and penicillin/streptomycin) containing increasing concentrations of drug. […] The resulting formazan product was dissolved with acid-isopropanol and the absorbance at a wavelength of 490 nm (A490) was read on a SPECTRAmax® Microplate Spectrophotometer (Molecular Devices, Sunnyvale, Calif.). The absorbance values were normalized by assigning the value of the control line in the medium without drug to 1.0 and the value of the no cell control to 0. Experiments were performed in triplicate.

OVCAR8TR cells = test: Reversal of drug resistance, cytotoxicity (MTT) assay in OVCAR8TR; assay type: cell-based, human; conditions: Paclitaxel
Protocol: FIGS. 1 (a-b) are graphs that depict the effects of NSC23925 on drug sensitivity in ovarian cancer cells; 1(a) depicts the effects of NSC23925 on sensitive (SKOV-3) and resistant (SKOV-3TR) cells; 1(b) depicts the effects of NSC23925 on sensitive (OVCAR8) and resistant (OVCAR8TR) cells. Cells were treated with the paclitaxel and NSC23925 in RPMI1640 complete media at the indicated concentrations. The relative sensitivity of each line to paclitaxel was determined by MTT assay, as described below in the Examples section, 6 days post treatment. A: Reversal of paclitaxel resistance by NSC23925 in SKOV-3TR cells. B: Reversal of paclitaxel resistance by NSC23925 in OVCAR8TR cells.
Drug cytotoxicity was assessed in vitro using the MTT assay. SKOV-3 and SKOV-3TR cells were used herein. Briefly, 2×10^3 cells per well were plated in 96-well plates in culture medium (RPMI 1640 supplemented with 10% fetal bovine serum and penicillin/streptomycin) containing increasing concentrations of drug. After 7 days of culture, 10 μl MTT (5 mg/ml in PBS, obtained from Sigma) were added to each well and the plates were incubated for 4 h. The resulting formazan product was dissolved with acid-isopropanol and the absorbance at a wavelength of 490 nm (A490) was read on a SPECTRAmax® Microplate Spectrophotometer (Molecular Devices, Sunnyvale, Calif.). The absorbance values were normalized by assigning the value of the control line in the medium without drug to 1.0 and the value of the no cell control to 0. Experiments were performed in triplicate.

[2] = biological target: T1, Pgp1 efflux in SKOV-3TR and OVCAR8TR cells (Homo sapiens, UniProt P08183); test: Calcein AM drug efflux assay (VYBRANT kit) in resistant cells; assay type: cell-based
T1 construct: endogenous in cells; host or cells: SKOV-3TR and OVCAR8TR (paclitaxel-selected resistant lines, not transfected)
T1 sequence (P08183 whole entry): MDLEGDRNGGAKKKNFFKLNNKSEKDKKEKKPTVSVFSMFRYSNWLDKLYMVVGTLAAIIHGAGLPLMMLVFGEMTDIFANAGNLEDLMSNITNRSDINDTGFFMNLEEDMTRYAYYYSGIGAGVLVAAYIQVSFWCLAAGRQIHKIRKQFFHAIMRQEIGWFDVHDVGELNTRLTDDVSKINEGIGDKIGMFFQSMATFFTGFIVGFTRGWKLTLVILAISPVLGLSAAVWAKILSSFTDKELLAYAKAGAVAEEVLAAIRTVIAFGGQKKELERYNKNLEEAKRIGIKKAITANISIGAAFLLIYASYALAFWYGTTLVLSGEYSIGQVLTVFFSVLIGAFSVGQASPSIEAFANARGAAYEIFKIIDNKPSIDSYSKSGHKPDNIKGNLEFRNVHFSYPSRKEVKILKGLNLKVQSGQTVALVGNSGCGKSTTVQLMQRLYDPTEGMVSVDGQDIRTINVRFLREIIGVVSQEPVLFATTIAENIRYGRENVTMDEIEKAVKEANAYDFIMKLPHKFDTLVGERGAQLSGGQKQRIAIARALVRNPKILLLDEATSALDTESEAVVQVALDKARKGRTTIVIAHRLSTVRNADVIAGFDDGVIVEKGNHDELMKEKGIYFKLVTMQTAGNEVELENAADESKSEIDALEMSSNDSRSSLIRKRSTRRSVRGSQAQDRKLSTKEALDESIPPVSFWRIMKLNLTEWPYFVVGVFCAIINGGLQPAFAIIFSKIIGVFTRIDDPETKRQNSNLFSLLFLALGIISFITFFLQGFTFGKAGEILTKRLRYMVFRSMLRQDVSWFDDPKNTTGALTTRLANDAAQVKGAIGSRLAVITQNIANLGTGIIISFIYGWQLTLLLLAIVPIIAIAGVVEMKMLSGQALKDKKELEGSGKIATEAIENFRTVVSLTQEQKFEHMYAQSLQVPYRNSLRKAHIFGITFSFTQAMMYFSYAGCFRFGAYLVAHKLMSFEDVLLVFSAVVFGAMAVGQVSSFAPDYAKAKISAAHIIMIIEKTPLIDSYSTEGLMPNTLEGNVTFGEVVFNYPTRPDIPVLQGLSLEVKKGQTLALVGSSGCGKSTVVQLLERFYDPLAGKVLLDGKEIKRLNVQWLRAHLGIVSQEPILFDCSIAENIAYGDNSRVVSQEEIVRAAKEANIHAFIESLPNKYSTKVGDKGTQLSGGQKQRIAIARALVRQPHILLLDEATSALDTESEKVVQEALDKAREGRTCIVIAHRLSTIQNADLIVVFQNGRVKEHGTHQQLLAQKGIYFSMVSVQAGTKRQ
Protocol: Calcein-AM assay was optimized and performed using the VYBRANT™ multi-drug resistance assay kit (Invitrogen/Molecular Probes) and SKOV-3TR cells. Cells were seeded at 50,000 cells/well (100 μl of culture medium) in a 96-well plate and incubated for 24 h. […] The cell fluorescence images were acquired by a fluorescence microscope (A, C) and quantities of fluorescence were measured in a SPECTRAmax Microplate Spectrofluorometer (B, D).
The VYBRANT™ multi-drug resistance assay kit (Invitrogen/Molecular Probes) was used to measure drug efflux properties of different resistant cell lines. This assay utilizes the fluorogenic dye calcein acetoxymethyl ester (calcein AM) as a substrate for efflux activity of Pgp1 or other membrane pump ABC proteins. Calcein AM is taken up by cells and hydrolyzed by cytoplasmic esterases to fluorescent calcein. Calcein AM is well retained in the cytosol. However, multi-drug resistant cells expressing high levels of Pgp1 rapidly extrude non-fluorescent calcein AM from the plasma membrane, reducing accumulation of fluorescent calcein in the cytosol. Drug sensitive and resistant cells (3×10^5) were cultured in 96-well plate for 24 hours and then incubated in 0.25 μM calcein AM in 150 μl total volume. After 30 minutes, the cells in plate were washed and centrifuged twice with 200 μl cold RPMI1640 culture medium, and cell fluorescence was measured at a […] on a SPECTRAMAX™ Microplate Spectrofluorometer (Molecular Devices).

SMILES: COc1ccc(-c2cc(C(O)C3CCCCN3)c3ccccc3n2)cc1 (stereo not shown) [NSC23925, (2-(4-methoxyphenyl)quinolin-4-yl)(piperidin-2-yl)methanol]
- Reversal of drug resistance in MCF-7 MX cells [1]: unable to reverse drug resistance
- fold-reversal of drug resistance, SKOV-3TR (SKOV-3TR cells; Doxorubicin, add NSC23925 0.1 μM): (1.4) fold
- fold-reversal of drug resistance, SKOV-3TR (SKOV-3TR cells; Doxorubicin, add NSC23925 0.5 μM): (3.3) fold
- fold-reversal of drug resistance, SKOV-3TR (SKOV-3TR cells; Doxorubicin, add NSC23925 1 μM): (11.5) fold
- fold-reversal of drug resistance, SKOV-3TR (SKOV-3TR cells; ET-743, add NSC23925 0.1 μM): (0.8) fold
- fold-reversal of drug resistance, SKOV-3TR (SKOV-3TR cells; ET-743, add NSC23925 0.5 μM): (1) fold
- fold-reversal of drug resistance, SKOV-3TR (SKOV-3TR cells; ET-743, add NSC23925 1 μM): (1) fold
- IC50 (SKOV-3TR cells; Doxorubicin, add NSC23925 0.1 μM, read-out: SKOV-3TR IC50 of Doxorubicin): 16500 ± 210 nM
- IC50 (SKOV-3TR cells; Doxorubicin, add NSC23925 0.5 μM, read-out: SKOV-3TR IC50 of Doxorubicin): 6780 ± 160 nM
- IC50 (SKOV-3TR cells; Doxorubicin, add NSC23925 1 μM, read-out: SKOV-3TR IC50 of Doxorubicin): 1940 ± 220 nM
- IC50 (SKOV-3TR cells; ET-743, add NSC23925 0.1 μM, read-out: SKOV-3TR IC50 of ET-743): 5 ± 2 nM
- IC50 (SKOV-3TR cells; ET-743, add NSC23925 0.5 μM, read-out: SKOV-3TR IC50 of ET-743): 4 ± 1 nM
- IC50 (SKOV-3TR cells; ET-743, add NSC23925 1 μM, read-out: SKOV-3TR IC50 of ET-743): 4 ± 1 nM
- IC50 (SKOV-3TR cells; PM00104, add NSC23925 0.1 μM, read-out: SKOV-3TR IC50 of PM00104): 5 ± 2 nM
- IC50 (SKOV-3TR cells; PM00104, add NSC23925 0.5 μM, read-out: SKOV-3TR IC50 of PM00104): 7 ± 1 nM
- IC50 (SKOV-3TR cells; PM00104, add NSC23925 1 μM, read-out: SKOV-3TR IC50 of PM00104): 5 ± 2 nM
- IC50 (SKOV-3TR cells; Paclitaxel, add NSC23925 0.1 μM, read-out: SKOV-3TR IC50 of Paclitaxel): 302 ± 56 nM
- IC50 (SKOV-3TR cells; Paclitaxel, add NSC23925 0.5 μM, read-out: SKOV-3TR IC50 of Paclitaxel): 132 ± 47 nM
- IC50 (SKOV-3TR cells; Paclitaxel, add NSC23925 1 μM, read-out: SKOV-3TR IC50 of Paclitaxel): 37 ± 28 nM
- fold-reversal of drug resistance, SKOV-3TR (SKOV-3TR cells; PM00104, add NSC23925 0.1 μM): (1.2) fold
- fold-reversal of drug resistance, SKOV-3TR (SKOV-3TR cells; PM00104, add NSC23925 0.5 μM): (0.9^ fold
- fold-reversal of drug resistance, SKOV-3TR (SKOV-3TR cells; PM00104, add NSC23925 1 μM): (1.2) fold
- fold-reversal of drug resistance, SKOV-3TR (SKOV-3TR cells; Paclitaxel, add NSC23925 0.1 μM): (1.03) fold
- fold-reversal of drug resistance, SKOV-3TR (SKOV-3TR cells; Paclitaxel, add NSC23925 0.5 μM): (2.4) fold
- fold-reversal of drug resistance, SKOV-3TR (SKOV-3TR cells; Paclitaxel, add NSC23925 1 μM): (8.4) fold
- IC50 (OVCAR8TR cells; Homo sapiens, add NSC23925 0.1 μM, read-out: OVCAR8TR IC50 of Paclitaxel): 127 ± 27 nM
- fold-reversal of drug resistance, OVCAR8TR (OVCAR8TR cells; add NSC23925 0.5 μM): (4.7) fold
- Potency compared with verapamil and CsA (calcein AM accumulation) [2]: significantly greater
- Half-maximal reversal of calcein AM accumulation deficit ([2]; SKOV-3TR and OVCAR8TR): 100 nM
- Lowest concentration with prominent effect on accumulation of calcein AM ([2]; SKOV-3TR and OVCAR8TR): 1 nM
- Near maximal reversal of calcein AM accumulation deficit ([2]; SKOV-3TR and OVCAR8TR): 500 nM
